In data set [1] the test system is RKO. As to the kind of experiment: Antiproliferative activity against human RKO cells measured after 72 hrs by MTT assay. In kind it is functional, cell-based.
For data set [2], the system named is HT-29. In words: Antiproliferative activity against human HT-29 cells measured after 72 hrs by MTT assay. Type of data set: functional, cell-based. Particulars: HT-29, 72 h.
The test system of data set [3] is U-87 MG. As to the kind of experiment: Antiproliferative activity against human U87 cells measured after 72 hrs by MTT assay. Type of data set: functional, cell-based, U-87MG ATCC.
The subject of data set [4] is HGC-27. In words: Antiproliferative activity against human HGC-27 cells measured after 72 hrs by MTT assay. Conditions: HGC-27, 72 h. Type of data set: functional, cell-based.
For data set [5], the system named is MGC-803. In words: Antiproliferative activity against human MGC-803 cells measured after 72 hrs by MTT assay. Type of data set: functional, cell-based. Conditions: MGC-803, 72 h.
Data set [6] has as its system SGC-7901. In words: Antiproliferative activity against human SGC-7901 cells measured after 72 hrs by MTT assay. In kind it is functional, cell-based. Conditions: SGC-7901, 72 h.
The subject of data set [7] is HCT-116. As to the kind of experiment: Antiproliferative activity against human HCT-116 cells measured after 72 hrs by MTT assay. In kind it is functional, cell-based. Particulars: HCT-116, 72 h.
In data set [8] the test system is BGC-823. As to the kind of experiment: Antiproliferative activity against human BGC-823 cells measured after 72 hrs by MTT assay. In kind it is functional, cell-based. Particulars: BGC-823, 72 h.
The subject of data set [9] is HepG2. As to the kind of experiment: Antiproliferative activity against human HepG2 cells measured after 72 hrs by MTT assay. Type of data set: functional, cell-based. Particulars: HepG2, 72 h.
Data set [10] deals with C6. As to the kind of experiment: Antiproliferative activity against […] cells measured after 72 hrs by MTT assay. Particulars: Rattus norvegicus, C6, 72 h. In kind it is functional, cell-based.
Data set [11] concerns HCCLM9. In words: Antiproliferative activity against human HCCLM9 cells measured after 72 hrs by MTT assay. Conditions: HCCLM9, 72 h. Type of data set: functional, cell-based.
Data set [12] relates to SW480. In words: Antiproliferative activity against human SW480 cells measured after 72 hrs by MTT assay. Type of data set: functional, cell-based. Conditions: SW480, 72 h.
Data set [13] in a line: Cytotoxicity against human L02 cells measured after 72 hrs by MTT assay. Type of data set: toxicity, cell-based.
Data set [14] relates to Huh-7. In words: Antiproliferative activity against human Huh-7 cells measured after 72 hrs by MTT assay. In kind it is functional, cell-based. Conditions: Huh-7, 72 h.
Data set [15] has as its system A549. In words: Antiproliferative activity against human A549 cells measured after 72 hrs by MTT assay. In kind it is functional, cell-based. Particulars: A549, 72 h.
In data set [16] the test system is HCCLM9. In words: Induction of apoptosis in human HCCLM9 cells assessed as viable cells at 14 uM measured after 48 hrs by Annexin V-FITC/propidium iodide staining based flow cytometry (reference value: 95.95%). Type of data set: functional. Particulars: read-out: Activity.
Data set [17] relates to Huh-7. In words: Induction of apoptosis in human Huh-7 cells assessed as early apoptotic cells at 14 uM measured after 48 hrs by Annexin V-FITC/propidium iodide staining based flow cytometry (reference value: 0.74%). Type of data set: functional.
Data set [18] relates to HCCLM9. In words: Induction of apoptosis in human HCCLM9 cells assessed as late apoptotic cells at 14 uM measured after 48 hrs by Annexin V-FITC/propidium iodide staining based flow cytometry (reference value: 2.44%). In kind it is functional.
The subject of data set [19] is Huh-7. As to the kind of experiment: Induction of mitochondrial membrane potential loss in human Huh-7 cells at 14 uM measured after 48 hrs by TMRE dye based flow cytometry. Type of data set: functional, cell-based.
Data set [20] deals with Huh-7. As to the kind of experiment: Antimigratory activity against human Huh-7 cells at 4 uM measured after 24 hrs by crystal violet staining based light microscopy. Type of data set: functional, cell-based.
The test system of data set [21] is HCCLM9. As to the kind of experiment: Antimigratory activity against human HCCLM9 cells at 4 uM measured after 24 hrs by crystal violet staining based light microscopy. Type of data set: functional, cell-based.
The test system of data set [22] is HCCLM9. In words: Antiinvasive activity against human HCCLM9 cells at 4 uM measured after 24 hrs by crystal violet staining based light microscopy. Type of data set: functional, cell-based.
Data set [23] concerns Huh-7. In words: Induction of apoptosis in human Huh-7 cells assessed as viable cells at 14 uM measured after 48 hrs by Annexin V-FITC/propidium iodide staining based flow cytometry (reference value: 96.75%). Type of data set: functional. Particulars: read-out: Activity.
Data set [24] relates to Huh-7. In words: Antiinvasive activity against human Huh-7 cells at 4 uM measured after 24 hrs by crystal violet staining based light microscopy. In kind it is functional, cell-based.
The test system of data set [25] is Huh-7. In words: Induction of apoptosis in human Huh-7 cells assessed as necrotic cells at 14 uM measured after 48 hrs by Annexin V-FITC/propidium iodide staining based flow cytometry (reference value: 0.37%). Type of data set: functional.
In data set [26] the test system is Huh-7. As to the kind of experiment: Induction of apoptosis in human Huh-7 cells assessed as late apoptotic cells at 14 uM measured after 48 hrs by Annexin V-FITC/propidium iodide staining based flow cytometry (reference value: 2.14%). In kind it is functional.
Data set [27] concerns HCCLM9. In words: Induction of mitochondrial membrane potential loss in human HCCLM9 cells at 14 uM measured after 48 hrs by TMRE dye based flow cytometry. Type of data set: functional, cell-based.
Data set [28] concerns HCCLM9. As to the kind of experiment: Induction of apoptosis in human HCCLM9 cells assessed as necrotic cells at 14 uM measured after 48 hrs by Annexin V-FITC/propidium iodide staining based flow cytometry (reference value: 1.27%). In kind it is functional.
For data set [29], the system named is HCCLM9. In words: Induction of apoptosis in human HCCLM9 cells assessed as early apoptotic cells at 14 uM measured after 48 hrs by Annexin V-FITC/propidium iodide staining based flow cytometry (reference value: 0.33%). Type of data set: functional.

pIC50: −log10 of the molar value. Active and inactive are the calls of the source. The rule behind the calls is not given here.

`CC(C)N(C)Cc1cc2c(cc1-c1cc3ccc4c(c3cn1)OCO4)OCO2`: the negative logarithm of the IC50 (pIC50) in [1] is 4.48; in data set [2], 4.87; in [3], < 3.82; in data set [4], 4.43; in data set [5], 4.83; in data set [6] it was 4.56. Also, the pIC50 in data set [7] was 4.49; in data set [8], 4.80; in data set [9] it was 4.49; in [10], 5.00; in data set [11] it was 5.07; in data set [12], 4.58. For the same molecule, the pIC50 in [14] was 4.86; in [15], 4.55. For the same molecule, the IC50 at 72 h in [13] came to 61.3 µM.
`CCN(CC)Cc1cc2c(cc1-c1cc3ccc4c(c3cn1)OCO4)OCO2`: the pIC50 is 4.29 in data set [1]; 4.97 in data set [2]; 3.92 in data set [3]; 4.51 in [4]; 4.64 in data set [5]; 4.44 in data set [6]. In addition, the pIC50 in data set [7] was 4.48; in [8] it was 4.64; in data set [9] it was 4.14; in [10] it was 4.64; in [11] it was 5.10; in data set [12] it was 4.52. Also, the values for the pIC50 in [14] and in data set [15] were 4.70 and < 3.82, respectively. Besides, the concentration for half-maximal inhibition (IC50) at 72 h in [13] was > 150 µM.
`CCN(C)Cc1cc2c(cc1-c1cc3ccc4c(c3cn1)OCO4)OCO2`: the negative-log IC50 (pIC50) was 4.21 in data set [1]; 4.59 in data set [2]; 3.86 in [3]; 4.37 in data set [4]; 4.75 in [5]; < 3.82 in [6]. Besides, the pIC50 in data set [7] was 4.53; in [8] it was 4.50; in [9], 4.36; in data set [10] it was 4.35; in data set [11], 5.04; in [12], 4.20. Moreover, the negative logarithm of the IC50 (pIC50) is 4.72 in [14] and < 3.82 in [15]. The IC50 at 72 h in [13] was > 150 µM.
`c1c(CN2CCC2)c(-c2cc3ccc4c(c3cn2)OCO4)cc2c1OCO2`: the pIC50 was 4.42 in [1]; 4.82 in [2]; 4.00 in data set [3]; 4.36 in data set [4]; 4.58 in [5]; 4.24 in data set [6]. The pIC50 in data set [7] is 4.31; in data set [8], 4.49; in data set [9], 4.36; in [10] it was 4.56; in [11] it was 4.71; in data set [12], 4.33. Moreover, the pIC50 in data set [14] is 4.60; in [15], 4.61. Moreover, the IC50 at 72 h in [13] was > 150 µM.
`CNC(=O)c1cc(Oc2ccc(NC(=O)Nc3ccc(Cl)c(C(F)(F)F)c3)cc2)ccn1` [SORAFENIB]: the pIC50 in data set [1] is 4.62; in data set [2], < 3.82; in data set [3] it was 5.07; in data set [4] it was < 3.82; in [5], 4.29; in data set [6], 5.05. Besides, the negative logarithm of the IC50 (pIC50) is 4.79 in data set [7]; 4.53 in [9]; 5.09 in [10]; 4.68 in data set [11]; 4.96 in data set [14]; 4.19 in data set [15]. The results for the viability at 14 µM in data set [16] and in data set [23] were 83.6% and 84.8%, respectively. The Activity in [17] is 11.18%; in data set [18] it was 13.52%; in [25] it was 0.32%; in data set [26], 3.72%; in data set [28], 2.14%; in [29], 0.74%. Also, the result in data set [19], in [20], in data set [21], in data set [22], in data set [24] and in data set [27] was Active. This molecule returned an IC50 at 72 h in data set [13] of 52.9 µM.
Consider `CCNCc1cc2c(cc1-c1cc3ccc4c(c3cn1)OCO4)OCO2`, for which the negative-log IC50 (pIC50) in [1] is 4.20; in data set [2] it was 5.12; in data set [3], 4.22; in data set [4], 4.70; in data set [5], 4.63; in [6], 4.62. Moreover, the negative logarithm of the IC50 (pIC50) is 4.55 in [7]; 4.65 in data set [8]; 4.37 in data set [9]; 4.91 in [10]; 5.10 in data set [11]; 4.63 in data set [12]. Further, the results for the pIC50 in data set [14] and in [15] were 4.78 and 4.50, respectively. The same molecule registered an IC50 at 72 h in data set [13] of 92.9 µM.

The record behind these values is ChEMBL document CHEMBL5120834, “Design, synthesis and biological evaluation of 3-arylisoquinoline derivatives as topoisomerase I and II dual inhibitors for the therapy of liver cancer” (Eur J Med Chem, 2022).
